From patent publication US11254686B1 (Corvus Pharmaceuticals, Inc., priority 2017, dated 2022)

Key:
adenosine A2A receptor = adenosine A2A receptor (Homo sapiens (Human), UniProt P29274); assay: Adenosine receptor activity assay (Table 1), A2A activity; type: biochemical; conditions: read-out: Ave A2A cAMP IC50
[1] = Hepatocyte intrinsic clearance, rat; type: in vitro ADME; conditions: hepatocytes
[2] = system: CYP 450 (isoform not given); assay: CYP450 inhibition at 10 μM; type: in vitro ADME; conditions: read-out: CYP 450 % INH @ 10 μM
[3] = Hepatocyte intrinsic clearance, human; type: in vitro ADME; conditions: hepatocytes
adenosine A1 receptor = adenosine A1 receptor (Homo sapiens (Human), UniProt P30542); assay: Adenosine receptor activity assay (Table 1), A1 cAMP; type: cell-based
adenosine A3 receptor = adenosine A3 receptor (Homo sapiens (Human), UniProt P0DMS8); assay: Adenosine receptor activity assay (Table 1), A3 cAMP; type: cell-based
adenosine A2B receptor = adenosine A2B receptor (Homo sapiens (Human), UniProt P29275); assay: Adenosine receptor activity assay (Table 1), A2B activity; type: biochemical; conditions: for Ratio: A2A activity to A2B activity (A2A/A2B); for IC50: read-out: Ave A2B cAMP IC50
adenosine A2B receptor, sequence (P29275 whole entry): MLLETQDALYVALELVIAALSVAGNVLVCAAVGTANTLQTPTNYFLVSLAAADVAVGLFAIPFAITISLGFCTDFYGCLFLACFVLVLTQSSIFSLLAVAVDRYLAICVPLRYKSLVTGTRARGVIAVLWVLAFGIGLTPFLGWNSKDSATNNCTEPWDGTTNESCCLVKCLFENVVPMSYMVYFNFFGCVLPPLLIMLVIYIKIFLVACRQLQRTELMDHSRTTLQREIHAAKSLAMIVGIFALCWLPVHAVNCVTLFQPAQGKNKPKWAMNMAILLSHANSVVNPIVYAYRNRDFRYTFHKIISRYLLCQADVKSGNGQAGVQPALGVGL

adenosine A1 receptor, sequence (P30542 whole entry): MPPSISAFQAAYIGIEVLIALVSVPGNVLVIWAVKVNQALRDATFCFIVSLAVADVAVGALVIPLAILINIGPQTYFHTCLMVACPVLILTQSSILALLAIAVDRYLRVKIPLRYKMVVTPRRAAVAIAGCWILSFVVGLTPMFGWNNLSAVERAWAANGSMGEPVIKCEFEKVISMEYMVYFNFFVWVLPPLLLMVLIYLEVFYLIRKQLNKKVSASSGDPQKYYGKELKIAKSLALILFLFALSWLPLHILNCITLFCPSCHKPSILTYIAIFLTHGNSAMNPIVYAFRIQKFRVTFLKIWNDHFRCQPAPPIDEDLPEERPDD
adenosine A2A receptor, sequence (P29274 whole entry): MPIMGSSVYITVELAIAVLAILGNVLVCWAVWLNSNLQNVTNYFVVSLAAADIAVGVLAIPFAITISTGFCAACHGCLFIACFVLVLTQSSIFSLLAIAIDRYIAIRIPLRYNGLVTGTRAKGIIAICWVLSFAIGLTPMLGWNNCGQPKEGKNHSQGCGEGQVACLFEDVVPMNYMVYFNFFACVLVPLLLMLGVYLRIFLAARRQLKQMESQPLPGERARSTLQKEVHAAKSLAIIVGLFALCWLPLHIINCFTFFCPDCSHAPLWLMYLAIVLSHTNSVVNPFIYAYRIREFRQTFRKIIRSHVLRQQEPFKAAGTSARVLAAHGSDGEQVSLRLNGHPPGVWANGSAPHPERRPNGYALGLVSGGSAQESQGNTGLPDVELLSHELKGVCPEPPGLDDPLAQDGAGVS
adenosine A3 receptor, sequence (P0DMS8 whole entry): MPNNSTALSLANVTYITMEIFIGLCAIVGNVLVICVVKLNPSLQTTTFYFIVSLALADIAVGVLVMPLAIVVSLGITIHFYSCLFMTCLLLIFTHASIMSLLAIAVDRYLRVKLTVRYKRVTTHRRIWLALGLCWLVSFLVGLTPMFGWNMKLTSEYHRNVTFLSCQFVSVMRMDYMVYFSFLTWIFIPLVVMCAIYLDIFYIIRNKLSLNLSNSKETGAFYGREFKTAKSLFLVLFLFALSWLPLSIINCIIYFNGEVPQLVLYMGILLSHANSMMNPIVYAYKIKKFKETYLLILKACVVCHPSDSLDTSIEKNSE

Row | IC50 (adenosine A2A receptor) [nM] | hepatocyte CLint [1] [µL/min/1e6 cells] | inhibition at 10 µM [2] [%] | hepatocyte CLint [3] [µL/min/1e6 cells] | IC50 (adenosine A1 receptor) [nM] | IC50 (adenosine A3 receptor) [nM] | Ratio (adenosine A2B receptor) | IC50 (adenosine A2B receptor) [nM] | SMILES
1 | 100 to 500 | 51.7 | 46 | 20.3 | > 500 | 50 to 100 | 162.88 | < 10 | CNc1cc2nc(N[C@@H](C)c3cncc(F)c3)nc(C(=O)N3CCCC3)c2s1 [Example Z210, (S)-(2-((1-(5-Fluoropyridin-3-yl)ethyl)amino)-6-(methylamino)thieno[3,2-d]pyrimidin-4-yl)(pyrrolidin-1-yl)methanone]
2 | 100 to 500 | 53.2 | 67 | 15.8 | > 500 | 50 to 100 | 201.82 | < 10 | CNc1cc2nc(N[C@@H](C)c3cncc(F)c3)nc(C(=O)N3CCC3)c2s1 [Example Z211, (S)-Azetidin-1-yl(2-((1-(5-fluoropyridin-3-yl)ethyl)amino)-6-(methylamino)thieno[3,2-d]pyrimidin-4-yl)methanone]
3 | > 500 | 4.61 | 52.5 | 16.1 | > 500 | 50 to 100 | 340.19 | < 10 | CNc1cc2nc(N[C@@H](C)c3cncc(F)c3)nc(C(=O)N3CC[C@@H](O)C3)c2s1 [Example Z224, (2-(((S)-1-(5-Fluoropyridin-3-yl)ethyl)amino)-6-(methylamino)thieno[3,2-d]pyrimidin-4-yl)((R)-3-hydroxypyrrolidin-1-yl)methanone]

The next lines start with the compound.

Row | SMILES | IC50 (adenosine A2A receptor) [nM] | hepatocyte CLint [1] [µL/min/1e6 cells] | inhibition at 10 µM [2] [%] | hepatocyte CLint [3] [µL/min/1e6 cells] | IC50 (adenosine A1 receptor) [nM] | IC50 (adenosine A3 receptor) [nM] | Ratio (adenosine A2B receptor) | IC50 (adenosine A2B receptor) [nM]
4 | C[C@H](Nc1nc(C(=O)N2CC(O)C2)c2sccc2n1)c1cncc(F)c1 [Example Z198, (S)-(2-((1-(5-Fluoropyridin-3-yl)ethyl)amino)thieno[3,2-d]pyrimidin-4-yl)(3-hydroxyazetidin-1-yl)methanone] | 100 to 500 | 20.6 | 27 | 6.78 | > 500 | > 500 | 52.81 | < 10
5 | Cc1cc2nc(N[C@@H](C)c3cccnc3)nc(C(=O)N3CCCC3)c2s1 [Example Z213, (S)-(6-Methyl-2-((1-(pyridin-3-yl)ethyl)amino)thieno[3,2-d]pyrimidin-4-yl)(pyrrolidin-1-yl)methanone] | 100 to 500 | 25.3 | 90 | 59.6 | > 500 | > 500 | 127.82 | < 10
6 | C[C@H](Nc1nc(C(=O)N2CC[C@H](F)C2)c2sccc2n1)c1cncc(F)c1 [Example Z225, (2-(((S)-1-(5-Fluoropyridin-3-yl)ethyl)amino)thieno[3,2-d]pyrimidin-4-yl)((S)-3-fluoropyrrolidin-1-yl)methanone] | 100 to 500 | 21.1 | 57 | 44.5 | > 500 | > 500 | 43.99 | < 10
7 | CO[C@@H]1CCN(C(=O)c2nc(N[C@@H](C)c3cncc(F)c3)nc3ccsc23)C1 [Example Z251, (2-(((S)-1-(5-Fluoropyridin-3-yl)ethyl)amino)thieno[3,2-d]pyrimidin-4-yl)((R)-3-methoxypyrrolidin-1-yl)methanone] | 100 to 500 | – | 49.1 | – | > 500 | > 500 | 19.74 | < 10
8 | CO[C@H]1CCN(C(=O)c2nc(N[C@@H](C)c3cncc(F)c3)nc3ccsc23)C1 [Example Z252, (2-(((S)-1-(5-Fluoropyridin-3-yl)ethyl)amino)thieno[3,2-d]pyrimidin-4-yl)((S)-3-methoxypyrrolidin-1-yl)methanone] | 100 to 500 | – | 55.9 | – | > 500 | > 500 | 19.78 | 10 to 50
